Reference: ChEMBL document CHEMBL5244219, “Recent developments of quinolone-based derivatives and their activities against Escherichia coli” (Eur J Med Chem, 2018)
Converted amounts (≈) assume the structure as drawn.

What follows are molecules tested on Escherichia coli (assay: Antibacterial activity against Escherichia coli assessed as bacterial growth inhibition). Settings: not given.
Assay type: functional

| SMILES | MIC |
| --- | --- |
| O=C(O)c1cn2c3c(c(Cl)c(F)cc3c1=O)SC(c1ccc(F)cc1)C2 (stereo not given) | 0.12 µg/mL (≈ 0.305 µM) |
| O=C(O)c1cn([C@@H]2C[C@@H]2F)c2cc(N3CCN(Cn4nc(-c5ccc6ccccc6c5)n(Cc5ccccc5)c4=S)CC3)c(F)cc2c1=O | ≤ 0.04 µg/mL |
| COc1ccc(-c2nn(CN3CCN(c4cc5c(cc4F)c(=O)c(C(=O)O)cn5[C@@H]4C[C@@H]4F)CC3)c(=S)n2-c2ccccc2)cc1OC | ≤ 0.04 µg/mL |
| CC(=O)c1cc2ccccc2n(/N=C/c2ccc(C)cc2)c1=O | 1.6 µg/mL (≈ 5.26 µM) |
| CC(=O)c1cc2ccccc2n(/N=C/c2ccccc2Cl)c1=O | 1.6 µg/mL (≈ 4.93 µM) |
| CC1Cn2cc(C(=O)O)c(=O)c3cc(F)c(N4CCN(c5ccc(F)cc5)CC4)c(c32)S1 (stereo not given) | 0.12 µg/mL (≈ 0.262 µM) |
| CC1Cn2cc(C(=O)O)c(=O)c3cc(F)c(N4CCN(c5ccccn5)CC4)c(c32)S1 (stereo not given) | 0.12 µg/mL (≈ 0.272 µM) |
| CN1CCN(c2c(F)cc3c(=O)c(C(=O)O)cn4c3c2SC(c2ccc(F)cc2)C4)CC1 (stereo not given) | 0.12 µg/mL (≈ 0.262 µM) |
| CC1Cn2cc(C(=O)O)c(=O)c3cc(F)c(N4CCN(C=O)CC4)c(c32)S1 (stereo not given) | 0.12 µg/mL (≈ 0.307 µM) |
| CC1Cn2cc(C(=O)O)c(=O)c3cc(F)c(N4CCCC4)c(c32)S1 (stereo not given) | 0.12 µg/mL (≈ 0.344 µM) |
| CC1Cn2cc(C(=O)O)c(=O)c3cc(F)c(Cl)c(c32)S1 (stereo not given) | 0.12 µg/mL (≈ 0.382 µM) |
| CC(=O)c1cc2ccccc2n(/N=C/c2cccc([N+](=O)[O-])c2)c1=O | 1.6 µg/mL (≈ 4.77 µM) |
| CC1Cn2cc(C(=O)O)c(=O)c3cc(F)c(N4CCN(C)CC4)c(c32)S1 (stereo not given) | 0.12 µg/mL (≈ 0.318 µM) |
| CC(=O)c1cc2ccccc2n(/N=C/c2ccc(O)cc2)c1=O | 1.6 µg/mL (≈ 5.22 µM) |
| O=C(O)c1cn2c3c(c(N4CCNCC4)c(F)cc3c1=O)SC(c1ccc(F)cc1)C2 (stereo not given) | 0.12 µg/mL (≈ 0.271 µM) |
| C[C@H]1COc2c(N3CCC4(CCN(C)C4)C3)c(F)cc3c(=O)c(C(=O)O)cn1c23 (stereo not given in full) | 0.025 µg/mL (≈ 0.0623 µM) |
| O=C(O)c1cn2c3c(c(Cl)c(F)cc3c1=O)SC(c1cccc(F)c1)C2 (stereo not given) | 0.12 µg/mL (≈ 0.305 µM) |

| SMILES | MIC |
| --- | --- |
| CCNCC1CCN(c2c(F)cc3c(=O)c(C(=O)O)cn4c3c2SC(C)C4)C1 (stereo not given) | 0.12 µg/mL (≈ 0.296 µM) |
| CC(=O)c1cc2cc(Cl)ccc2n(/N=C/c2ccc(O)cc2)c1=O | 1.6 µg/mL (≈ 4.7 µM) |
| CC1Cn2cc(C(=O)O)c(=O)c3cc(F)c(N4CCCNCC4)c(c32)S1 (stereo not given) | 0.12 µg/mL (≈ 0.318 µM) |
| CC1Cn2cc(C(=O)O)c(=O)c3cc(F)c(N4CCNCC4)c(c32)S1 (stereo not given) | 0.25 µg/mL (≈ 0.688 µM) |
| COc1cc(-c2nn(CN3CCN(c4cc5c(cc4F)c(=O)c(C(=O)O)cn5[C@@H]4C[C@@H]4F)CC3)c(=S)n2-c2ccccc2)cc(OC)c1OC | ≤ 0.04 µg/mL |
| CC(=O)c1cc2cc(Cl)ccc2n(/N=C/c2ccccc2[N+](=O)[O-])c1=O | 1.6 µg/mL (≈ 4.33 µM) |
| CC1Cn2cc(C(=O)O)c(=O)c3cc(F)c(N4CCN(Cc5ccccc5C(F)(F)F)CC4)c(c32)S1 (stereo not given) | 0.12 µg/mL (≈ 0.23 µM) |
| CC(=O)c1cc2ccccc2n(/N=C/c2ccccc2[N+](=O)[O-])c1=O | 1.6 µg/mL (≈ 4.77 µM) |
| COc1cc(OC)cc(-c2nn(CN3CCN(c4cc5c(cc4F)c(=O)c(C(=O)O)cn5[C@@H]4C[C@@H]4F)CC3)c(=S)n2Cc2ccccc2)c1 | ≤ 0.04 µg/mL |
| COc1cc(/C=N/n2c(=O)c(C(C)=O)cc3cc([N+](=O)[O-])ccc32)cc(OC)c1OC | 1.6 µg/mL (≈ 3.76 µM) |
| O=C(O)c1cn([C@@H]2C[C@@H]2F)c2cc(N3CCN(Cn4nc(-c5ccccc5O)n(-c5ccccc5)c4=S)CC3)c(F)cc2c1=O | ≤ 0.04 µg/mL |
| CN1CCN(c2c(F)cc3c(=O)c(C(=O)O)cn4c3c2SCC4)CC1 [RUFLOXACIN] | 0.25 µg/mL (≈ 0.688 µM) |
| CC(=O)c1cc2cc(Cl)ccc2n(/N=C/c2ccc(C)cc2)c1=O | 1.6 µg/mL (≈ 4.72 µM) |
| COc1cc(OC)cc(-c2nn(CN3CCN(c4cc5c(cc4F)c(=O)c(C(=O)O)cn5[C@@H]4C[C@@H]4F)CC3)c(=S)n2-c2ccccc2)c1 | ≤ 0.04 µg/mL |
| COc1cc(/C=N/n2c(=O)c(C(C)=O)cc3cc(Cl)ccc32)cc(OC)c1OC | 1.6 µg/mL (≈ 3.86 µM) |
| CC1(C)S[C@@H]2[C@H](NC(=O)[C@H](N)c3ccc(O)cc3)C(=O)N2[C@H]1C(=O)O [AMOXICILLIN] | 2 µg/mL (≈ 5.47 µM) |

These molecules were tested on Escherichia coli (assay: Antibacterial activity against Escherichia coli assessed as bacterial growth inhibition measured after 18 to 24 hrs by broth microdilution method). Settings: time 18-24 hrs.
Assay type: functional

| SMILES | MIC |
| --- | --- |
| O=C(O)c1cn(-c2ccc(O)cc2)c2cc(N3CC4CC3CN4)c(F)cc2c1=O (stereo not given) | < 0.05 µg/mL |
| O=C(O)c1cn(-c2ccc(O)cc2)c2cc(N3CC4CCCNC4C3)c(F)cc2c1=O (stereo not given) | < 0.05 µg/mL |
| N[C@@H]1CN(c2nc3c(cc2F)c(=O)c(C(=O)O)cn3-c2ccc(O)cc2)CC12CC2 | < 0.05 µg/mL |
| N[C@@H]1CN(c2cc3c(cc2F)c(=O)c(C(=O)O)cn3-c2ccc(O)cc2)CC12CC2 | < 0.05 µg/mL |
| N[C@H]1CN(c2nc3c(cc2F)c(=O)c(C(=O)O)cn3-c2ccc(O)cc2)CC12CC2 | < 0.05 µg/mL |
| COc1c(N2C[C@@H](C)[C@H](N)C2)c(F)cc2c(=O)c(C(=O)O)cn(-c3ccc(O)cc3)c12 | < 0.05 µg/mL |
| COc1c(N2C[C@@H]3[C@@H](N)[C@@H]3C2)c(F)cc2c(=O)c(C(=O)O)cn(-c3ccc(O)cc3)c12 | < 0.05 µg/mL |
| N[C@H]1CN(c2cc3c(cc2F)c(=O)c(C(=O)O)cn3-c2ccc(O)cc2)CC12CC2 | < 0.05 µg/mL |
| C[C@@H]1CN(c2nc3c(cc2F)c(=O)c(C(=O)O)cn3-c2ccc(O)cc2)C[C@H]1N | < 0.05 µg/mL |
| COc1c(N2C[C@@H](C)N[C@@H](C)C2)c(F)cc2c(=O)c(C(=O)O)cn(-c3ccc(O)cc3)c12 | < 0.05 µg/mL |
| C[C@H](N)[C@H]1CCN(c2nc3c(cc2F)c(=O)c(C(=O)O)cn3-c2ccc(O)cc2)C1 | < 0.05 µg/mL |
| COc1c(N2C[C@@H](N)C3(CC3)C2)c(F)cc2c(=O)c(C(=O)O)cn(-c3ccc(O)cc3)c12 | < 0.05 µg/mL |
| C[C@H](N)[C@@H]1CCN(c2nc3c(cc2F)c(=O)c(C(=O)O)cn3-c2ccc(O)cc2)C1 | < 0.05 µg/mL |
| NCC1CCN(c2nc3c(cc2F)c(=O)c(C(=O)O)cn3-c2ccc(O)cc2)C1 (stereo not given) | < 0.05 µg/mL |
| C[C@@H]1CN(c2nc3c(cc2F)c(=O)c(C(=O)O)cn3-c2ccc(O)cc2)C[C@H](C)N1 | < 0.05 µg/mL |
| NC1CCN(c2cc3c(cc2F)c(=O)c(C(=O)O)cn3-c2ccc(O)cc2)C1 (stereo not given) | < 0.05 µg/mL |
| C[C@H]1CN(c2cc3c(cc2F)c(=O)c(C(=O)O)cn3-c2ccc(O)cc2)C[C@H]1N | < 0.05 µg/mL |
| N[C@@H]1CCC[C@@H]2CN(c3nc4c(cc3F)c(=O)c(C(=O)O)cn4-c3ccc(O)cc3)C[C@@H]21 | < 0.05 µg/mL |
| COc1c(N2CC3CCCNC3C2)c(F)cc2c(=O)c(C(=O)O)cn(-c3ccc(O)cc3)c12 (stereo not given) | < 0.05 µg/mL |
| N[C@@H]1[C@H]2CN(c3nc4c(cc3F)c(=O)c(C(=O)O)cn4-c3ccc(O)cc3)C[C@@H]12 | < 0.05 µg/mL |
| CN1CCC2CN(c3nc4c(cc3F)c(=O)c(C(=O)O)cn4-c3ccc(O)cc3)CC21 (stereo not given) | < 0.05 µg/mL |
| C[C@@H]1CN(c2cc3c(cc2F)c(=O)c(C(=O)O)cn3-c2ccc(O)cc2)C[C@H]1N | < 0.05 µg/mL |
| COc1c(N2C[C@@H](N)[C@@H](C)C2)c(F)cc2c(=O)c(C(=O)O)cn(-c3ccc(O)cc3)c12 | < 0.05 µg/mL |
| N[C@@H]1[C@H]2CN(c3cc4c(cc3F)c(=O)c(C(=O)O)cn4-c3ccc(O)cc3)C[C@@H]12 | < 0.05 µg/mL |

| SMILES | MIC |
| --- | --- |
| C[C@H](N)[C@H]1CCN(c2cc3c(cc2F)c(=O)c(C(=O)O)cn3-c2ccc(O)cc2)C1 | < 0.05 µg/mL |
| COc1c(N2CC3CC2CN3)c(F)cc2c(=O)c(C(=O)O)cn(-c3ccc(O)cc3)c12 (stereo not given) | < 0.05 µg/mL |
| NC1CCN(c2nc3c(cc2F)c(=O)c(C(=O)O)cn3-c2ccc(O)cc2)C1 (stereo not given) | < 0.05 µg/mL |
| O=C(O)c1cn(-c2ccc(O)cc2)c2nc(N3CC4CCCNC4C3)c(F)cc2c1=O (stereo not given) | < 0.05 µg/mL |
| COc1c(N2CCC(CN)C2)c(F)cc2c(=O)c(C(=O)O)cn(-c3ccc(O)cc3)c12 (stereo not given) | < 0.05 µg/mL |
| O=C(O)c1cn(-c2ccc(O)cc2)c2cc(N3CCNCC3)c(F)cc2c1=O | < 0.05 µg/mL |
| COc1c(N2CCN(C)CC2)c(F)cc2c(=O)c(C(=O)O)cn(-c3ccc(O)cc3)c12 | < 0.05 µg/mL |
| C[C@@H]1C[C@H](N)CN1c1cc2c(cc1F)c(=O)c(C(=O)O)cn2-c1ccc(O)cc1 | < 0.05 µg/mL |
| NCC1CCN(c2cc3c(cc2F)c(=O)c(C(=O)O)cn3-c2ccc(O)cc2)C1 (stereo not given) | < 0.05 µg/mL |
| C[C@@H](N)[C@H]1CCN(c2cc3c(cc2F)c(=O)c(C(=O)O)cn3-c2ccc(O)cc2)C1 | < 0.05 µg/mL |
| CN1CCN(c2nc3c(cc2F)c(=O)c(C(=O)O)cn3-c2ccc(O)cc2)CC1 | < 0.05 µg/mL |
| O=C(O)c1cn(-c2ccc(O)cc2)c2nc(N3CC4CC3CN4)c(F)cc2c1=O (stereo not given) | < 0.05 µg/mL |
| N[C@@H]1CCC[C@@H]2CN(c3cc4c(cc3F)c(=O)c(C(=O)O)cn4-c3ccc(O)cc3)C[C@@H]21 | < 0.05 µg/mL |
| C[C@@H]1CN(c2cc3c(cc2F)c(=O)c(C(=O)O)cn3-c2ccc(O)cc2)C[C@H](C)N1 | < 0.05 µg/mL |
| CC1CNCCN1c1nc2c(cc1F)c(=O)c(C(=O)O)cn2-c1ccc(O)cc1 (stereo not given) | < 0.05 µg/mL |
| COc1c(N2CCNCC2)c(F)cc2c(=O)c(C(=O)O)cn(-c3ccc(O)cc3)c12 | < 0.05 µg/mL |
| O=C(O)c1cn(-c2ccc(O)cc2)c2nc(N3CCNCC3)c(F)cc2c1=O | < 0.05 µg/mL |
| CN1CCC2CN(c3cc4c(cc3F)c(=O)c(C(=O)O)cn4-c3ccc(O)cc3)CC21 (stereo not given) | < 0.05 µg/mL |
| C[C@H](N)[C@@H]1CCN(c2cc3c(cc2F)c(=O)c(C(=O)O)cn3-c2ccc(O)cc2)C1 | < 0.05 µg/mL |
| C[C@@H](N)[C@H]1CCN(c2nc3c(cc2F)c(=O)c(C(=O)O)cn3-c2ccc(O)cc2)C1 | < 0.05 µg/mL |
| C[C@H]1CN(c2nc3c(cc2F)c(=O)c(C(=O)O)cn3-c2ccc(O)cc2)C[C@H]1N | < 0.05 µg/mL |
| COc1c(N2CC3CCN(C)C3C2)c(F)cc2c(=O)c(C(=O)O)cn(-c3ccc(O)cc3)c12 (stereo not given) | < 0.05 µg/mL |
| COc1c(N2CCC(N)C2)c(F)cc2c(=O)c(C(=O)O)cn(-c3ccc(O)cc3)c12 (stereo not given) | < 0.05 µg/mL |
